Source: PMC7954794, “Protein context shapes the specificity of SH3 domain-mediated interactions in vivo” (Nature Communications, 2021)

Test system: growth of yeast strains under 51 stress conditions
Assay: Growth assays in 51 stress conditions (Fig. 1E-F, S2D, S5B)
Assay type: cell-based, Saccharomyces cerevisiae
Set-up: key to Growth (Fig. S2D) / growth of ABP1 SH3-swapped strains in stress condition: log2 colony size, average of median per strain (growth score)
Conditions: ABP1 SH3-swapped strains
Procedure: All WT, SH3-deleted, KO (except for CDC25 which is the only essential SH3-containing gene in yeast), ABP1 SH3-swapped, and SLA1 SH3-shuffled strains were grown on omnitrays in 1536 formats and robotically manipulated with a pin tool (the DHFR F[1,2] bait strains were used except for the KO strains). Each strain was randomly positioned in 6 replicates per plate and two plates per condition were performed, for 12 replicates per strain in total. A border of two rows and two columns of WT strains (BY4741) around the plate was used to remove border effects. Strains were grown on YPD media for two days at 30 °C. They were then replicated on 51 different media that are described in the Supplementary Table 3 and were incubated at 37 °C in a spImager custom platform with images acquired every two hours for four days. The colony sizes from plate pictures were also measured with the R package “Gitter” and the output was manually inspected. Positions with an abnormality in colony circularity were removed. The colony sizes after 74 h of incubation at 37 °C were log2 transformed and used for the analyses. First, the differences between the two plate replicates were corrected to remove plate effects. The median colony size was calculated for each strain per plate. Strains with a difference in their median colony size of more than two between the two plate replicates were removed. Finally, the average of the median colony size was calculated for each strain per condition (growth score).

CDC25
Growth (Fig. S2D) (Bathophenanthroline.0.1uM): 10.8311
Growth (Fig. S2D) (Bathophenanthroline.10uM): 10.71
Growth (Fig. S2D) (Bathophenanthroline.1uM): 10.807
Growth (Fig. S2D) (CaCl2.100mM): 10.8749
Growth (Fig. S2D) (CaCl2.250mM): 10.774
Growth (Fig. S2D) (CaCl2.500mM): 10.2891
Growth (Fig. S2D) (Caffein.10mM): 10.1016
Growth (Fig. S2D) (Caffein.2mM): 11.0786
Growth (Fig. S2D) (CdCl2.100uM): 9.608
Growth (Fig. S2D) (CdCl2.10uM): 10.8752
Growth (Fig. S2D) (CdCl2.50uM): 9.913
Growth (Fig. S2D) (CuSO4.1mM): 10.4484
Growth (Fig. S2D) (CuSO4.5mM): 7.922
Growth (Fig. S2D) (Cycloheximide.0.05.uM): 11.0566
Growth (Fig. S2D) (Cycloheximide.0.2.uM): 10.636
Growth (Fig. S2D) (Cycloheximide.0.5.uM): 10.117
Growth (Fig. S2D) (DMSO.2.): 11.0377
Growth (Fig. S2D) (DMSO.6.): 9.934
Growth (Fig. S2D) (DMSO.8.): 9.291
Growth (Fig. S2D) (Ethanol.2.): 10.7941
Growth (Fig. S2D) (Ethanol.6.): 10.2979
Growth (Fig. S2D) (Ethanol.8.): 10.0965
Growth (Fig. S2D) (Galactose.2.): 10.7721
Growth (Fig. S2D) (Glycerol.2.): 9.727
Growth (Fig. S2D) (Hydroxyurea.25mM): 10.7845
Growth (Fig. S2D) (Hygromycin.190uM): 10.9998
Growth (Fig. S2D) (Hygromycin.19uM): 11.0292
Growth (Fig. S2D) (Hygromycin.95uM): 11.0306
Growth (Fig. S2D) (MMS.0.004.): 10.9713
Growth (Fig. S2D) (MMS.0.02.): 10.7211
Growth (Fig. S2D) (MMS.0.04.): 9.98
Growth (Fig. S2D) (Menadione.100uM): 10.5959
Growth (Fig. S2D) (Menadione.200uM): 10.4955
Growth (Fig. S2D) (Menadione.50uM): 10.8366
Growth (Fig. S2D) (NaCl.0.25M): 10.7898
Growth (Fig. S2D) (NaCl.1M): 9.773
Growth (Fig. S2D) (Nitroquinoline.10uM): 10.6639
Growth (Fig. S2D) (Nitroquinoline.50uM): 10.6019
Growth (Fig. S2D) (Nystatin.0.01uM): 11.0504
Growth (Fig. S2D) (Nystatin.0.1uM): 11.1
Growth (Fig. S2D) (Raffinose.2.): 11.0411
Growth (Fig. S2D) (Rapamycin.10nM): 9.922
Growth (Fig. S2D) (Rapamycin.50nM): 9.425
Growth (Fig. S2D) (SC.pH3): 10.4587
Growth (Fig. S2D) (SC.pH6): 11.0388
Growth (Fig. S2D) (SDS.0.01.): 11.0329
Growth (Fig. S2D) (SDS.0.02.): 11.0194
Growth (Fig. S2D) (SDS.0.05.): 10.8768
Growth (Fig. S2D) (Sorbitol.10mM): 11.0003
Growth (Fig. S2D) (Sorbitol.1mM): 11.0466
Growth (Fig. S2D) (Sorbitol.5mM): 10.9359
